Results on two compounds are retold here after patent publication US20020058696A1, “Chelate compound-containing antibacterial agent for helicobacter pylori” (DIRECTOR OF NTL. INST. OF AGROBIOLOGICAL RESOURCES , …, priority 2000, published 2002).

For data set [1] the following is noted: FAO/WHO Codex Alimentarius Commission, 1973; cited from earlier work.
Data set [2] relates to Helicobacter pylori ATCC 43504 strain. The protocol: Helicobacter pylori (ATCC 43504 strain, purchased from American Type Culture Collection) was cultured with use of a 96-well plate. […] After inoculation of Helicobacter pylori, the plate was introduced in a sealed vessel of 2.5 liter volume, into which Anaero Pack-Helico (made by Mitsubishi Gas Chemical), an agent for absorbing oxygen and generating carbon dioxide gas, was also introduced, and cultured for 5 days under an anaerobic condition at 37° C.
Growth of Helicobacter pylori was determined by means of a 96-well plate reader with use of a 540 nm or 595 nm filter. Herein, as a control for absorbance determination, a medium without EDTA was used.

Turning to `O=C(O)CN(CCN(CC(=O)O)CC(=O)O)CC(=O)O` [EDTA, Ethylenediaminetetraacetic acid], in data set [1], the “acceptable daily intake (ADI) as a food additive” value was 2.5 mg/kg of weight.
With `O=C([O-])CN(CCN(CC(=O)O)CC(=O)O)CC(=O)[O-].[Na+].[Na+]` [disodium ethylenediaminetetraacetate], the “concentration at which growth of Helicobacter pylori is inhibited” value in data set [2] (ATCC 43504 strain, medium pH 8.0, cultured 5 days at 37° C under anaerobic condition, turbidity at 540 nm or 595 nm against control medium, from FIG. 1 / FIG. 2) fell in the range of 0.025 to 1 mM. Besides, the “amount to be taken to inhibit growth of Helicobacter pylori” value in data set [2] (calculated for a human stomach volume of about 1.5 L, amount of the salt) is 14 to 558 mg. Also, the “amount to be taken to inhibit growth of Helicobacter pylori, as free EDTA” value in data set [2] (calculated for a human stomach volume of about 1.5 L, expressed as free EDTA) is 11 to 438 mg. Also, the “growth-inhibiting concentration converted into” value in data set [2] (conversion of 0.025-1 mM using molecular weight 372Da) was in the range of 9.3 to 372 mg/L.
